In PubChem BioAssay AID1996:
Values after ≈ are worked out from the molar mass of the structure shown.

Conditions: buffer; pH 7.4; 200.0 µM

SMILES	solubility kinetic
Cc1cc(=O)n2c(-c3ccc(Cl)cc3)csc2n1	0.0079 mg/mL (≈ 28.5 µM)
N#Cc1ccccc1NC(=O)CN1CCN(c2ccccn2)CC1	> 0.0482 mg/mL
C=Cn1ccnc1P(=S)(c1ccc(Cl)cc1)c1nccn1C=C	0.0469 mg/mL (≈ 130 µM)
COc1cccc(N=Cc2nc(-c3ccccc3)oc2OC(C)=O)c1	0.0101 mg/mL (≈ 30 µM)
Cc1ccc(S(=O)(=O)Nc2ccc(Nc3ccccc3)cc2)cc1	0.0025 mg/mL (≈ 7.39 µM)
Cc1ccc(OCC(=O)N2c3ccccc3CC2C)c([N+](=O)[O-])n1 (stereo unspecified)	0.0213 mg/mL (≈ 65.1 µM)
NC(=O)C1CCN(S(=O)(=O)Cc2ccccc2Cl)CC1	> 0.0475 mg/mL
O=C(Cc1ccccc1)Nc1ncccc1Cl	> 0.037 mg/mL
O=C(NC1CC1)c1cc(OCC(F)(F)F)ccc1OCC(F)(F)F	0.0443 mg/mL (≈ 124 µM)
Cc1cccnc1NC(=O)CNC(=O)C1CCCCC1	> 0.0413 mg/mL
COC(=O)c1ccc(C(=O)OC)c(NC(=S)N2CCCC2)c1	0.0096 mg/mL (≈ 29.8 µM)
Cc1ccc(S(=O)(=O)Nc2ccc(Cl)cn2)cc1	0.0283 mg/mL (≈ 100 µM)
O=C(CN1C2CCCC1CC(NC(=O)c1ccccc1)C2)NC1CC1 (stereo unspecified)	> 0.0512 mg/mL
CCC(C)[C@H](NC(=O)Nc1ccc(C)cc1C)C(=O)O (stereo partly specified)	0.0318 mg/mL (≈ 114 µM)
Cc1cc(C)c2c(N)c(C(=O)Nc3ccc(F)cc3)sc2n1	0.0011 mg/mL (≈ 3.49 µM)
CCC(=O)Nc1ccc2c(c1)nc(CCN1CCC(C)CC1)n2C	> 0.0493 mg/mL
O=C(c1ccccc1)c1ccccc1N=Cc1c(O)[nH]c(=O)[nH]c1=O	0.0038 mg/mL (≈ 11.3 µM)
O=C(Nc1cccc2ncccc12)C(c1ccccc1)c1ccccc1	< 0.0004 mg/mL
COC(=O)[C@H](Cc1ccccc1)NC(=O)NCCc1ccc(F)cc1	> 0.0517 mg/mL
CCOC(=O)Cc1csc(NC(=O)c2cccc(Cl)c2)n1	0.0069 mg/mL (≈ 21.2 µM)
CCCC(=O)C1=C(N2CCCC2)CC(C)(C)C(C(=O)OC)C1=O (stereo unspecified)	0.0449 mg/mL (≈ 140 µM)
Cc1cccc(C(=O)N/C(=C\c2ccco2)C(=O)N2CCCCCC2)c1	0.0503 mg/mL (≈ 143 µM)
O=C(c1ccc(Cl)cc1)N1CCN(CCOc2ccccc2)CC1	> 0.0517 mg/mL

SMILES	solubility kinetic
COc1ccc(C(=O)O)cc1S(=O)(=O)NC(C)C	> 0.041 mg/mL
COc1ccccc1CNC(=O)CN(C)CC(=O)Nc1ccc(F)c(F)c1F	> 0.0593 mg/mL
COc1ccc(NC(=O)Cc2ccc(Cl)c(Cl)c2)cn1	0.0089 mg/mL (≈ 28.6 µM)
O=C(Nc1cccnc1Cl)c1ccc(Cl)cc1	0.035 mg/mL (≈ 131 µM)
CCn1c(Oc2ccc(F)cc2)nc2c1c(=O)n(C)c(=O)n2C	> 0.0477 mg/mL
C=CCOCC(O)Cn1c(N2CCCC2)nc2c1c(=O)[nH]c(=O)n2C (stereo unspecified)	> 0.0524 mg/mL
CCN(CC)c1ccc(/C=C2\SC(N)=NC2=O)cc1	< 0.0002 mg/mL
COc1ccccc1NC(=O)c1ccc(S(=O)(=O)N(C)c2ccccc2OC)cc1	0.007 mg/mL (≈ 16.4 µM)
O=C(O)CN1C(=O)/C(=C/c2ccc(SCc3ccccc3)o2)SC1=S	0.0212 mg/mL (≈ 54.2 µM)
CN(Cc1ccccc1)C1CCNCC1.Cl	> 0.0416 mg/mL
Cc1ccc(NC(=S)NCc2ccccc2)cc1C	0.0051 mg/mL (≈ 18.9 µM)
CCc1cccc(OC2OC(CO)C(O)C(O)C2NC(C)=O)c1 (stereo unspecified)	> 0.0488 mg/mL
CC(C)(C)c1ccc(N2C(=O)CSC2c2cccnc2)cc1 (stereo unspecified)	0.043 mg/mL (≈ 138 µM)
CC(=O)c1c(OC(=O)c2ccccc2)ccnc1C(F)(F)F	> 0.0464 mg/mL
CCn1c(=O)c([N+](=O)[O-])c(Cl)c2ccccc21	0.0033 mg/mL (≈ 13.1 µM)
CCOc1ccc(C(=O)CCC(=O)NC(C)C(=O)OC)cc1 (stereo unspecified)	> 0.0461 mg/mL
COc1ccc(CNC(=O)COC(=O)c2ccc(F)c(S(=O)(=O)N3CCOCC3)c2)cc1	0.068 mg/mL (≈ 146 µM)
CCCn1c(C(O)c2cccc(OC)c2)nc2ccccc21 (stereo unspecified)	0.0394 mg/mL (≈ 133 µM)
CCOC(=O)C1=C(C)NC(C)=C(C(=O)OCC)C1C(=O)OCC(=O)NCc1ccccc1	> 0.0667 mg/mL
COc1ccc(C(=O)NCCCNC(=O)c2ccccn2)cc1	> 0.047 mg/mL
COc1ccc(CN2CCOCCOCCOCC2)cc1	0.0391 mg/mL (≈ 132 µM)
COc1ccc(CC(=O)OCC(=O)c2ccc[nH]2)cc1	> 0.041 mg/mL
COc1ccc(NC(=O)CN2CC(C)OC(C)C2)cc1Cl (stereo unspecified)	0.043 mg/mL (≈ 137 µM)
